Data from paper PMC6609034, “Unraveling the role of the secretor antigen in human rotavirus attachment to histo-blood group antigens” (PLoS Pathogens, 2019).

Experiments:
[1] = system: VP8* P[8]c binding to the H1 antigen; test: Binding blocking assay, immobilized H1 antigen; set-up: species or system human rotavirus; conditions: soluble sugar at 20 mM
Procedure: (§1) To confirm the binding of the VP8* from the P[8] genotype to the H type-1 precursor LNB, a blocking assay was performed using soluble LNB and its related disaccharide galacto-N-biose (Gal-β-1,3-GalNAc; GNB) produced and purified in our laboratory as previously described.
(§2) Streptavidin microtiter plates were coated with biotinylated H type-1 antigen or LNB at 2 μg/ml with water and incubated for 1 hour at 37°C, followed by an overnight incubation at 4°C. Blocking assays were performed in parallel, using glass tubes containing the P[8]c and P[8]Wa VP8* protein at their EC50 for each ligand and 20 mM of each of the soluble disaccharides (LNB and GNB) and monosaccharides (D-galactose, GlcNAc and GalNAc). A positive binding control without sugar was also included. The tubes containing the mixes of VP8* with sugars were maintained 1 hour at 37°C, followed by an overnight incubation at 4°C. The next day the coated streptavidin plates were washed with PBS-T, the VP8*-sugar solutions were added to the plates and incubated during 4 hours at 4°C. The plates were washed three times with PBS-T and detection of the interactions was performed as described above. The results are presented as the percentage (%) of binding of each condition compared to the binding of the positive binding control (without blocking sugar). All experiments were performed in triplicate.

[2] = system: VP8* P[8]c binding to LNB; test: Binding blocking assay, immobilized LNB; set-up: species or system human rotavirus; conditions: soluble sugar at 20 mM
Procedure: as §1, §2

With `CC(=O)NC1C(O)OC(CO)C(O)C1OC1OC(CO)C(O)C(O)C1O` (stereo not drawn) [LNB, Gal-β1,3-GlcNAc] the “reduction in the binding to the H1 antigen” value [1] was 24.2% and the “reduction of the binding of VP8* P[8]c to LNB” value [2] was 52.2%.
